Assay results taken from patent US9404082B2, “Method for production of eosinophil from pluripotent stem cell” (KYOTO UNIVERSITY, priority 2010, dated 2016).

System: ES cell (H1)-derived eosinophils
Test: Measurement of migratory capacity (Transwell)
Format: cell-based, human
Conditions: 1640 medium with 5% FBS, 1 to 2 hours, IL-5 0.2-25 ng/ml, Eotaxin 0.4-250 nM, fMLP 10 pM-100 nM, FIG. 3
Description: Eosinophils established from ES cells (H1) by the above method were transferred to Transwell, and 1640 medium supplemented with 5% FBS was added thereto. IL-5 (0.2 ng/ml to 25 ng/ml), Eotaxin (0.4 nM to 250 nM) and fMLP (10 pM to 100 nM) at various concentrations were added thereto, and culture was performed for 1 to 2 hours. Thereafter, the number of cells migrated from the top layer to the bottom layer was measured (FIG. 3).

Question: With fMLP as the substance, how does the “number of cells migrated from the top layer to the bottom layer” value (from here on “number of cells migrated”) read?
Answer: Its value is “migrate in response to the respective types of stimulation”.

Question: With “Eotaxin: cytokine used to stimulate eosinophil migration” as the substance, how does the “number of cells migrated” value read?
Answer: Its value is “migrate in response to the respective types of stimulation”.

Question: Which “number of cells migrated” value does the source give for “IL-5: cytokine used to stimulate eosinophil migration” here?
Answer: Its value is “migrate in response to the respective types of stimulation”.
